Results on 21 molecules are retold here after patent publication US8710233B2 (Gruenenthal GmbH, priority 2005, dated 2014).

SMILES strings stand for the structures. Read-outs that look alike come from different tables or passages of the source.

The target in experiment [1] is T1, vanilloid receptor (VR1) (Homo sapiens, UniProt Q8NER1).
T1 construct: expressed in transfected cells; host or cells: CHO K1 cells (ECACC), stably transfected
The experiment can be described thus: FLIPR Ca2+ influx assay on CHO K1 cells transfected with the VR1 gene (pharmacological method II). It counts as cell-based. The conditions noted are these: CHO-K1, read-out: inhibition in percent, Ki (human) Cap.; for inhibition at 1 µM: ne = no effect.

For experiment [2], the system named is formaldehyde induced nociceptive behaviour. Nature of the experiment: Formaldehyde test in mice, second (late) phase. It counts as in vivo, mouse. The conditions noted are these: mouse, read-out: inhibition formaldehyde test (n = 10); for inhibition in vivo at 0.3 mg/kg: 0.3 mg/kg body weight po.
Experiment [3] deals with T2, vanilloid receptor 1 (VR1/TRPV1) of the rat species (Rattus norvegicus, UniProt O35433).
T2 construct: The spinal column is removed from decapitated rats; from tissue; host or cells: primary cells dissociated from rat dorsal root ganglia
T2 sequence (O35433 whole entry): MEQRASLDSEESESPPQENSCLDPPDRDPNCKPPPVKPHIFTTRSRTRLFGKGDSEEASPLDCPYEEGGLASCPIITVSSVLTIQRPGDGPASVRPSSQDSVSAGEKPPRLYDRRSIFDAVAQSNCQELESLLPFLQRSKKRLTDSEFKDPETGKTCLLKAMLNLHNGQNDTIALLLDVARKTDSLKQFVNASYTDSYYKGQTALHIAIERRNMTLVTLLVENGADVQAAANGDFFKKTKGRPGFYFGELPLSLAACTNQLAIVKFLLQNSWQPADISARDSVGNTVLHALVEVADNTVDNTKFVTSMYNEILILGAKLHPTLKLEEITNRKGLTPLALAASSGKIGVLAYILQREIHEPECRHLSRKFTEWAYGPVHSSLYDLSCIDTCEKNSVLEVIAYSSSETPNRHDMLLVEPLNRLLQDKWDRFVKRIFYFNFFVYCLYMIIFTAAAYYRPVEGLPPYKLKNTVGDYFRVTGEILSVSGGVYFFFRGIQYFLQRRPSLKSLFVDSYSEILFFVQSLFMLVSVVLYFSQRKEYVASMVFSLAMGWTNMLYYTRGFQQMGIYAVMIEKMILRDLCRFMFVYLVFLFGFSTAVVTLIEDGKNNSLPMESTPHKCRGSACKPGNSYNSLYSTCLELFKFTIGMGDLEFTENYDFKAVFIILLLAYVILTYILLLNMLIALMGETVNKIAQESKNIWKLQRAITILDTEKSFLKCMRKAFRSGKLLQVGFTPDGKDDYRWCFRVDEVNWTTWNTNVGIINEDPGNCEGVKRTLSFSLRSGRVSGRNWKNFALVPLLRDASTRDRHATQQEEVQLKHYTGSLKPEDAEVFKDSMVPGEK
The experiment can be described thus: FLIPR Ca2+ influx assay on rat dorsal root ganglia cells (pharmacological method I). The conditions noted are these: for Ki: table 4, capsaicin. The class given is cell-based. In short, it runs like this:
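Primary rat dorsal root ganglion cells loaded with 2 μM Fluo-4, Ca2+ influx read on FLIPR as peak fluorescence. Triplicates, at least 3 independent experiments.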

Experiment [4] has as its target T1, vanilloid receptor (VR1). Nature of the experiment: FLIPR Ca2+ influx assay on CHO K1 cells transfected with the VR1 gene (pharmacological method II). The settings on record: table 4; capsaicin; read-out: Ki (human) Cap. It counts as cell-based.
Experiment [5] concerns capsaicin induced hypothermie. The experiment can be described thus: Hypothermie assay in the mouse (capsaicin induced hypothermie). The class given is in vivo. The settings on record: mouse, read-out: inhibition hypothermie (n = 5); for inhibition in vivo at 0.3 mg/kg: 0.3 mg/kg body weight po.
Another experiment concerns the target VR1/TRPV1 receptor (Homo sapiens, UniProt Q8NER1). The experiment can be described thus: IC50 (human) after pH stimulus. It counts as cell-based. The settings on record: for IC50: table 4.
The mark [6] stands for this setting: read-out: inhibition in percent, IC50 (human) after pH stimulus.

T1 sequence (Q8NER1 whole entry): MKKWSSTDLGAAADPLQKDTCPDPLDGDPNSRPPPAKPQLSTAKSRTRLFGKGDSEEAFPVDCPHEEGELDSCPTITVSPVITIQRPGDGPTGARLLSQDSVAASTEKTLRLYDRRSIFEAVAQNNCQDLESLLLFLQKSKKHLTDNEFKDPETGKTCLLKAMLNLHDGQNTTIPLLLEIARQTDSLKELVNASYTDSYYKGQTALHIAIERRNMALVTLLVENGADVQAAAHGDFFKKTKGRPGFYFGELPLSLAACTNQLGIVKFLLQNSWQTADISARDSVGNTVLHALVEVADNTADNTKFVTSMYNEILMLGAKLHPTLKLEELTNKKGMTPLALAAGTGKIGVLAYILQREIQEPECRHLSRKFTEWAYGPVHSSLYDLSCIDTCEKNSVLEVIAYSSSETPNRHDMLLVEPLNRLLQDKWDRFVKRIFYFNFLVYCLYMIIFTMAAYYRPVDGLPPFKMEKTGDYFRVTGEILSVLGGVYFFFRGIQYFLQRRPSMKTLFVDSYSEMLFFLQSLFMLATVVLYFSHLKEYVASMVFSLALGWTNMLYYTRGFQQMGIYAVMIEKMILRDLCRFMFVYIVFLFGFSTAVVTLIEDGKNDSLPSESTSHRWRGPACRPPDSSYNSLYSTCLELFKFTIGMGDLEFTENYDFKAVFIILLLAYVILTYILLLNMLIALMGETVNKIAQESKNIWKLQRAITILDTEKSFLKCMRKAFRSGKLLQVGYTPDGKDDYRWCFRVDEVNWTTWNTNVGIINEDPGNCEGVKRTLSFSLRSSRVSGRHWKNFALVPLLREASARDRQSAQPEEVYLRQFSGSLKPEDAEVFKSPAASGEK
Chain of VR1/TRPV1 receptor (Q8NER1 whole entry): as above

A word on the inhibition: it is the share of the control response that was lost under treatment. Consider `CC(C(=O)NCc1c(CO)cc(C(C)(C)C)nc1OCc1ccccc1)c1ccc(NS(C)(=O)=O)c(F)c1` (stereo not shown) [Compound 223], for which the inhibition at 0.1 µM at vanilloid receptor (VR1) [1] (@ 0.1 μM) was 4%.
As to `CC1CCN(c2nc(C(F)(F)F)ccc2CNC(=O)C(C)c2ccc(NS(=O)(=O)C(F)(F)F)c(F)c2)CC1` (stereo not shown) [Compound 312], the inhibition at 1 µM at vanilloid receptor (VR1) [1] came to 7%.
`CC(C(=O)NCc1ccc(C(F)(F)F)nc1N1CCS(=O)(=O)CC1)c1ccc(NS(C)(=O)=O)c(F)c1` (stereo not shown) [Compound 314]: on vanilloid receptor (VR1) [1], the inhibition at 1 µM worked out at 12%.
Take `CC(C(=O)NCc1ccc(C(F)(F)F)nc1OCC1CCNCC1)c1ccc(NS(C)(=O)=O)c(F)c1` (stereo not shown) [Compound 343]: at vanilloid receptor (VR1) [1], the inhibition at 1 µM amounted to 8%.
`CC(C(=O)NCc1ccc(C(F)(F)F)nc1OC1CCNCC1)c1ccc(NS(C)(=O)=O)c(F)c1` (stereo not shown) [Compound 344]: the inhibition at 1 µM on vanilloid receptor (VR1) [1] was determined as 3%.
Broadly, the Ki is the dissociation constant of the complex between target and ligand, obtained from inhibition or displacement. What is called IC50 is the concentration needed to halve the response being measured. On to `COC1CCN(c2nc(C(F)(F)F)ccc2CNC(=O)C(C)c2ccc(NS(C)(=O)=O)c(F)c2)CC1` (stereo not shown) [Example 159, 2-(3-fluoro-4-methylsulfonamido-phenyl)-N-(4-methoxy-6′-trifluoromethyl-3,4,5,6-tetrahydro-2H-[1,2′]bipyridinyl-3′-ylmethyl)-propionamide], for which the inhibition in vivo at 0.3 mg/kg was determined as 10% in experiment [2] and 28% in experiment [5]. Also, the Ki is 21.4 nM in experiment [3] (read-out: Ki (rat) Cap.) and 2.4 nM at vanilloid receptor (VR1) [4]. At VR1/TRPV1 receptor, this molecule registered a half-maximal inhibitory concentration (IC50) of 280 nM.
In the same order, the values of `CCCCOC1CCN(c2nc(C(F)(F)F)ccc2CNC(=O)C(C)c2ccc(NS(C)(=O)=O)c(F)c2)CC1` (stereo not shown) [Example 160, N-(4-butoxy-6′-trifluoromethyl-3,4,5,6-tetrahydro-2H-[1,2′]bipyridinyl-3′-ylmethyl)-2-(3-fluoro-4-methylsulfonamido-phenyl)-propionamide] are 10%, 28%, 3 nM, 3.5 nM and 28.2 nM.
Turning to `CC(C(=O)NCc1ccc(C(F)(F)Cl)nc1OC1CCCC1)c1ccc(NS(C)(=O)=O)c(F)c1` (stereo not shown) [Example 166, N-[6-(chloro-difluoro-methyl)-2-cyclopentyloxy-pyridin-3-ylmethyl]-2-(3-fluoro-4-methylsulfonamido-phenyl)-propionamide], the inhibition in vivo at 0.3 mg/kg in experiment [2] was 48%; in experiment [5] it was 28%. Further, the Ki in experiment [3] (read-out: Ki (rat) Cap.) was found to be 1.1 nM; on vanilloid receptor (VR1) [4], 0.5 nM. Besides, the midpoint of inhibition at VR1/TRPV1 receptor, the IC50, lay at 18.5 nM.
For `CCCCN(C)c1nc(C(F)(F)F)ccc1CNC(=O)C(C)c1ccc(NS(C)(=O)=O)c(F)c1` (stereo not shown) [Example 167, N-[2-(butyl-methyl-amino)-6-trifluoromethyl-pyridin-3-ylmethyl]-2-(3-fluoro-4-methylsulfonamido-phenyl)-propionamide], the inhibition in vivo at 0.1 mg/kg in experiment [2] (0.1 mg/kg body weight po) was found to be 62%. For the same molecule, the inhibition constant (Ki) was determined as 2.8 nM in experiment [3] (read-out: Ki (rat) Cap.) and 0.8 nM on vanilloid receptor (VR1) [4]. Also, in experiment [5], the inhibition in vivo at 0.3 mg/kg turned out to be 19%. On VR1/TRPV1 receptor, this molecule returned an IC50 of 21.3 nM.
For `CC(C(=O)NCc1ccc(C(F)(F)Cl)nc1OC1CCCCC1)c1ccc(NS(C)(=O)=O)c(F)c1` (stereo not shown) [Example 168, N-[6-(chloro-difluoro-methyl)-2-cyclohexyloxy-pyridin-3-ylmethyl]-2-(3-fluoro-4-methylsulfonamido-phenyl)-propionamide], the results for the inhibition in vivo at 0.3 mg/kg in experiment [2] and in experiment [5] were 1% and 21%, respectively. The Ki stood at 1.4 nM in experiment [3] (read-out: Ki (rat) Cap.) and 0.9 nM at vanilloid receptor (VR1) [4]. This molecule had a half-maximal inhibitory concentration (IC50) against VR1/TRPV1 receptor of 17.6 nM.
Regarding `CCC1CCC(Oc2nc(C(F)(F)F)ccc2CNC(=O)C(C)c2ccc(NS(C)(=O)=O)c(F)c2)CC1` (stereo not shown) [Example 171, N-[2-(4-ethyl-cyclohexyloxy)-6-trifluoromethyl-pyridin-3-ylmethyl]-2-(3-fluoro-4-methylsulfonamido-phenyl)-propionamide], the inhibition in vivo at 0.3 mg/kg stood at 45% in experiment [2] and 32% in experiment [5]. The inhibition constant Ki in experiment [3] (Ki (rat) Cap.) stood at 2.4 nM; on vanilloid receptor (VR1) [4], 4.8 nM. The molecule also displayed an IC50 against VR1/TRPV1 receptor of 125 nM.
With `CC(C(=O)NCc1ccc(C(F)(F)F)nc1NCc1ccc(Cl)cc1)c1ccc(NS(C)(=O)=O)c(F)c1` (stereo not shown) [Example 173, N-[2-(4-chloro-benzylamino)-6-trifluoromethyl-pyridin-3-ylmethyl]-2-(3-fluoro-4-methylsulfonamido-phenyl)-propionamide], the inhibition in vivo at 0.3 mg/kg in experiment [2] was 0%; in experiment [5], 36%. Besides, the inhibitory constant (Ki) in experiment [3] (read-out: Ki (rat) Cap.) came out at 78.4 nM; at vanilloid receptor (VR1) [4], 65.7 nM. Besides, the half-inhibitory concentration (IC50) on VR1/TRPV1 receptor worked out at 414 nM.
The corresponding values for `CC(C(=O)NCc1ccc(C(F)(F)F)cc1N1CCCCCC1)c1ccc(NS(C)(=O)=O)c(F)c1` (stereo not shown) [Example 174, N-(2-azepan-1-yl-4-trifluoromethyl-benzyl)-2-(3-fluoro-4-methylsulfonamido-phenyl)-propionamide] are 5%, 39%, 1.4 nM, 1.6 nM and 64.5 nM.
As to `CC(C(=O)NCc1ccc(C(F)(F)F)nc1OCc1ccncc1)c1ccc(NS(C)(=O)=O)c(F)c1` (stereo not shown) [Example 177, 2-(3-fluoro-4-methylsulfonamido-phenyl)-N-[2-(pyridin-4-ylmethoxy)-6-trifluoromethyl-pyridin-3-ylmethyl]-propionamide], the inhibition in vivo at 0.3 mg/kg was 31% in experiment [2] and 14% in experiment [5]. In addition, the inhibition at 1 µM in experiment [3] (read-out: inhibition in percent, Ki (rat) Cap.) came to 34%. The Ki at vanilloid receptor (VR1) [4] came out at 51 nM. Also, the midpoint of inhibition against VR1/TRPV1 receptor, the IC50, lay at 1290 nM.
Regarding `CC(C(=O)NCc1ccc(C(F)(F)F)nc1N1CCN(c2ccc(F)cc2)CC1)c1ccc(NS(C)(=O)=O)c(F)c1` (stereo not shown) [Example 179, 2-(3-fluoro-4-methylsulfonamido-phenyl)-N-{2-[4-(4-fluoro-phenyl)-piperazin-1-yl]-6-trifluoromethyl-pyridin-3-ylmethyl}-propionamide], the inhibition in vivo at 0.3 mg/kg in experiment [2] stood at 5%; in experiment [5], 57%. The Ki in experiment [3] (read-out: Ki (rat) Cap.) came to 1 nM; at vanilloid receptor (VR1) [4], 1.1 nM. The molecule further showed an IC50 on VR1/TRPV1 receptor of 23.1 nM.
As to `CC(C(=O)NCc1ccc(C(F)(F)Cl)nc1OCc1ccccn1)c1ccc(NS(C)(=O)=O)c(F)c1` (stereo not shown) [Example 182, N-[6-(chloro-difluoro-methyl)-2-(pyridin-2-ylmethoxy)-pyridin-3-ylmethyl]-2-(3-fluoro-4-methylsulfonamido-phenyl)-propionamide], the results for the inhibition in vivo at 0.3 mg/kg in experiment [2] and in experiment [5] were 1% and 45%, respectively. Further, the Ki in experiment [3] (read-out: Ki (rat) Cap.) is 7.3 nM; at vanilloid receptor (VR1) [4], 4.2 nM. For the same molecule, on VR1/TRPV1 receptor, the IC50 came to 637 nM.
As for `CC(C(=O)NCc1ccc(C(F)(F)F)cc1N1CCCCCCC1)c1ccc(NS(C)(=O)=O)c(F)c1` (stereo not shown) [Example 217, N-(2-azocan-1-yl-4-trifluoromethyl-benzyl)-2-(3-fluoro-4-methylsulfonamido-phenyl)-propionamide], in experiment [2], the inhibition in vivo at 0.3 mg/kg came to 9%. The values for the Ki (in experiment [3] (read-out: Ki (rat) Cap.); at vanilloid receptor (VR1) [4]) were 1.1 nM and 2.8 nM, respectively. Moreover, the inhibition in vivo at 0.1 mg/kg in experiment [5] (0.1 mg/kg body weight po) turned out to be 40%. The IC50 against VR1/TRPV1 receptor came out at 36.5 nM.
Consider `CC(C(=O)NCc1ccc(C(F)(F)F)nc1-c1ccc2[nH]ccc2c1)c1ccc(NS(C)(=O)=O)c(F)c1` (stereo not shown) [Example 276, 2-(3-fluoro-4-methylsulfonamido-phenyl)-N-[2-(1H-indol-5-yl)-6-trifluoromethyl-pyridin-3-ylmethyl]-propionamide], for which the values for the inhibition at 5 µM at vanilloid receptor (VR1) [1] and on VR1/TRPV1 receptor (setting [6]) were 78% and 43%, respectively. For the same molecule, the inhibition at 0.1 µM at VR1/TRPV1 receptor (@ 0.1 μM, read-out: inhibition in percent, IC50 (human) after pH stimulus) came to 11%. Also, on VR1/TRPV1 receptor (@ 1 μM, ne = no effect, read-out: inhibition in percent, IC50 (human) after pH stimulus), the inhibition at 1 µM came to 11%.
In the case of `CC1CCN(c2nc(C(F)(F)F)ccc2CNC(=O)C(C)c2ccc(NS(=O)(=O)C(F)(F)F)c(F)c2)CC1` (stereo not shown) [Example 312, 2-(3-fluoro-4-trifluoromethylsulfonamido-phenyl)-N-(4-methyl-6′-trifluoromethyl-3,4,5,6-tetrahydro-2H-[1,2′]bipyridinyl-3′-ylmethyl)-propionamide], on vanilloid receptor (VR1) [1], the inhibition at 5 µM was 68%. Further, the “inhibition in percent, IC50 (human) after pH stimulus” value against VR1/TRPV1 receptor (@ 1 μM, ne = no effect) is reported as “ne @ 1 μM”.
As for `CC(C(=O)NCc1ccc(C(F)(F)F)nc1N1CCS(=O)(=O)CC1)c1ccc(NS(C)(=O)=O)c(F)c1` (stereo not shown) [Example 314, N-[2-(1,1-dioxo-1l6-thiomorpholin-4-yl)-6-trifluoromethyl-pyridin-3-ylmethyl]-2-(3-fluoro-4-methylsulfonamido-phenyl)-propionamide], the inhibition at 5 µM at vanilloid receptor (VR1) [1] was 46%; at VR1/TRPV1 receptor (setting [6]) it was 14%. The inhibition at 10 µM on VR1/TRPV1 receptor (@ 10 μM, read-out: inhibition in percent, IC50 (human) after pH stimulus) is 31%.
On to `CC(C(=O)NCc1ccc(C(F)(F)F)nc1OCC1CCNCC1)c1ccc(NS(C)(=O)=O)c(F)c1` (stereo not shown) [Example 343, 2-(3-fluoro-4-methylsulfonamido-phenyl)-N-[2-(piperidin-4-ylmethoxy)-6-trifluoromethyl-pyridin-3-ylmethyl]-propionamide], for which the inhibition at 5 µM at vanilloid receptor (VR1) [1] came to 55%. The “inhibition in percent, IC50 (human) after pH stimulus” value on VR1/TRPV1 receptor (@ 1 μM, ne = no effect) is listed as “ne @ 1 μM”.
